The numbers were not newly measured in US8329227B2, “Compositions for improving mental performance” (Factor Nutrition Labs, LLC, priority 2001, dated 2012), which cites them from elsewhere.

For series [1] the following is noted: 200 micrograms in four divided doses, fifty patients; placebo thirty-six percent.
For series [2] the following is noted: high or low dose versus placebo, 203 patients.
The conditions of series [3]: healthy volunteers aged 25-40.
For series [4] the following is noted: PS supplementation.

Take `C/C=C1\[C@H]2C=C(C)C[C@]1(N)c1ccc(=O)[nH]c1C2` [huperzine A, Huperzine A]: the “people with improvements in memory, cognitive function and behavior” value in series [1] is on record as “Fifty-eight”.
Take `CCOC(=O)C1=C[C@]2(CC)CCCN3CCc4c(n1c1ccccc41)[C@@H]32` [vinpocetine]: the “patients with reduced frequency or complete elimination of epileptic seizures” value (epileptic patients) is recorded as “twenty of the thirty-one”. Further, the “tolerability in clinical studies” value (human, in vivo) is recorded as “well tolerated”. Besides, the “cognitive performance and overall quality of life” value in series [2] was “Significantly greater improvements”. The “memory (Steinberg Memory Test)” value in series [3] is given as “significant memory improvement”.
With phosphatidyl serine [PS], the “improvement in learning ability and memory tasks” value in series [4] is 15%.
